pIC50: −log10 of the molar value.
How the values were obtained:
[1] = target: T1, human RNR (histidine tagged human M1 and human M2 proteins) (Homo sapiens, UniProt P23921); assay: Human RNR inhibition effect (dCDP formation from CDP); format: biochemical; details: 10 μM CDP, 37° C. for 30 minutes, read-out: RNR inhibitory activity IC50
T1 construct: made in house; host or cells: Escherichia coli
T1 sequence (P23921 1-792): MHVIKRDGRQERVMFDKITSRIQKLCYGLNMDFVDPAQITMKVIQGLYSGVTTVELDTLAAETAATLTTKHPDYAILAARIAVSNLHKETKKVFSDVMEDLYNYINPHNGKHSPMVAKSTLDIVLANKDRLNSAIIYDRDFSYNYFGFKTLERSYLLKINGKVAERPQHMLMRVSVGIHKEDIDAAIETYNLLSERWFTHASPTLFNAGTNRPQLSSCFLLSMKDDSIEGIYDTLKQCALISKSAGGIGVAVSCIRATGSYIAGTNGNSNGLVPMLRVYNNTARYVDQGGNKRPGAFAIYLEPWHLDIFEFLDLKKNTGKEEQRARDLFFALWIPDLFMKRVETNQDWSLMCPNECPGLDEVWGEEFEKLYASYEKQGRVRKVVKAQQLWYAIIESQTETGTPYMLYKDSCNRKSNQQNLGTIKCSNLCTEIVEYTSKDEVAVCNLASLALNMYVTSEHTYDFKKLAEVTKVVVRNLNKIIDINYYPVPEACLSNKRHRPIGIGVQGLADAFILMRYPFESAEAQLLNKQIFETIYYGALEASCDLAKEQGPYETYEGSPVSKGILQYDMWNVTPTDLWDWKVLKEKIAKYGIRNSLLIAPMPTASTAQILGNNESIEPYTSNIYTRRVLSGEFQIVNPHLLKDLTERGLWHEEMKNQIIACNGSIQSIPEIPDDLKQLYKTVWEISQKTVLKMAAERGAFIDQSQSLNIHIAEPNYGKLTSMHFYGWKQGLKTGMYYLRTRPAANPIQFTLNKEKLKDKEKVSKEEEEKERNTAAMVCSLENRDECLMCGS
Protocol: The inhibitory activity against the ribonucleotide reduction reaction (RNR inhibitory activity) of the Example compound was determined by measuring the formation of deoxycytidine diphosphate (hereinafter referred to as dCDP) from cytidine diphosphate (hereinafter referred to as CDP) by the following method.
Human M1 subunit (isoform 1, GenBank accession No: NM_001033), to which a histidine tag is fused at the amino terminus, and human M2 subunit (mutant lacking amino terminal 59 amino acids of isoform 2, GenBank accession No: NM_001034), to which a histidine tag is fused, were overexpressed in Escherichia coli and were solubilized after collection, and histidine tagged human M1 and histidine tagged human M2 proteins were purified on a nickel chelate column. A mixture of the histidine tagged human M1 and histidine tagged human M2 proteins was used as RNR in the ribonucleotide reduction reaction. [to]
First, Example compounds were serially diluted with DMSO. Next, human M1 protein and human M2 protein were added to a 0.02% aqueous albumin solution derived from fetal bovine serum, a DMSO solution of the Example compound or the control DMSO solution (final concentration of DMSO was 1%) was added, and the mixture was allowed to stand for 20 minutes. Thereafter, the reaction buffer [50 mM HEPES buffer (pH 7.2) at the final concentration, 4 mM magnesium acetate at the final concentration, 100 mM potassium chloride at the final concentration, 6 mM dithiothreitol at the final concentration, 2 mM adenosine triphosphate at the final concentration, 0.24 mM nicotinamide adenine dinucleotide phosphate at final concentration] and 10 μM CDP at the final concentration were added and incubated at 37° C. for 30 minutes to perform ribonucleotide reduction reaction. Immediately after the reaction, the reaction was stopped by heating at 100° C. for 15 minutes, followed by centrifugation at 10,000 rpm for 10 minutes. After the centrifugation, a portion (5 μL) of the resulting supernatant was analyzed with a high performance liquid chromatography (Shimadzu Corporation, Prominence) using Shim-pack XR-ODS (manufactured by Shimadzu GLC Co., 3.0×100 mm).

[2] = test system: A549 (Human lung cancer cell line); assay: Effect of combination of sulfonamide compound and other antitumor agent (CellTiter-Glo, combination index): A549
[3] = Example Compound 14 4420 nM + Oxaliplatin 1060 nM
[4] = Example Compound 209A 952 nM + Oxaliplatin 1060 nM
[5] = Example Compound 235A 1170 nM + Oxaliplatin 1060 nM
[6] = Example Compound 14 4420 nM + Midostaurin 251 nM
[7] = Example Compound 209A 952 nM + Midostaurin 251 nM
[8] = Example Compound 235A 1170 nM + Midostaurin 251 nM
[9] = Example Compound 14 4420 nM + Etoposide 3790 nM
[10] = Example Compound 209A 952 nM + Etoposide 3790 nM
[11] = Example Compound 235A 1170 nM + Etoposide 3790 nM
[12] = Example Compound 14 2950 nM + Sunitinib 1870 nM
[13] = Example Compound 14 4420 nM + Sunitinib 2800 nM
[14] = Example Compound 209A 635 nM + Sunitinib 1870 nM
[15] = Example Compound 209A 952 nM + Sunitinib 2800 nM
[16] = Example Compound 235A 780 nM + Sunitinib 1870 nM
[17] = Example Compound 235A 1170 nM + Sunitinib 2810 nM
[18] = Example Compound 14 4420 nM + Cabozantinib 6000 nM
[19] = Example Compound 209A 952 nM + Cabozantinib 6000 nM
[20] = Example Compound 235A 1170 nM + Cabozantinib 6010 nM
[21] = Example Compound 14 4420 nM + Lapatinib 6000 nM
[22] = Example Compound 209A 952 nM + Lapatinib 6000 nM
[23] = Example Compound 235A 1170 nM + Lapatinib 6010 nM
[24] = Example Compound 14 1970 nM + Trifluridine 288 nM
[25] = Example Compound 14 2950 nM + Trifluridine 431 nM
[26] = Example Compound 209A 635 nM + Trifluridine 431 nM
[27] = Example Compound 235A 780 nM + Trifluridine 431 nM
[28] = Example Compound 14 4420 nM + 5-Fluorouracil 2700 nM
[29] = Example Compound 209A 952 nM + 5-Fluorouracil 4310 nM
[30] = Example Compound 235A 1170 nM + 5-Fluorouracil 4310 nM
[31] = Example Compound 14 4420 nM + Azacytidine 4080 nM
[32] = Example Compound 209A 635 nM + Azacytidine 2740 nM
[33] = Example Compound 209A 952 nM + Azacytidine 4110 nM
[34] = Example Compound 235A 780 nM + Azacytidine 2740 nM
[35] = Example Compound 235A 1170 nM + Azacytidine 4110 nM
[36] = Example Compound 14 4420 nM + Luminespib 13.5 nM
[37] = Example Compound 209A 952 nM + Luminespib 13.5 nM
[38] = Example Compound 235A 1750 nM + Luminespib 8.13 nM
[39] = Example Compound 14 4420 nM + Talazoparib 7990 nM
[40] = Example Compound 209A 952 nM + Talazoparib 8000 nM
[41] = Example Compound 235A 1170 nM + Talazoparib 8000 nM
[42] = Example Compound 14 4420 nM + Olaparib 14800 nM
[43] = Example Compound 209A 952 nM + Olaparib 14800 nM
[44] = Example Compound 235A 1170 nM + Olaparib 14800 nM

For `Cc1c(Br)ccc(F)c1[C@@H](C)[C@H](NS(=O)(=O)c1ccc(Cl)c2c1OCCC2(C)O)c1n[nH]c(=O)o1` (single isomer, unassigned) [Example 222B], the pIC50 [1] was 7.22.

`Cc1c(Br)ccc(F)c1[C@@H](C)[C@H](NS(=O)(=O)c1ccc(F)c2c1OCCC2(C)O)c1n[nH]c(=O)o1` (single isomer, unassigned) [Example 227B] showed a pIC50 [1] of 7.05.

In the case of `CC(=O)OC1(C)CCOc2c(S(=O)(=O)N[C@H](c3n[nH]c(=O)o3)[C@H](C)c3c(F)ccc(Cl)c3C)ccc(Cl)c21` (stereo partly drawn) [Example 100, 5-chloro-8-(N-((1S,2R)-2-(3-chloro-6-fluoro-2-methylphenyl)-1-(5-oxo-4,5-dihydro-1,3,4-oxadiazol-2-yl)propyl)sulfamoyl)-4-methylchroman-4-yl acetate], the pIC50 [1] was 6.52.

With `O=C1[O][Pt]2([NH][C@@H]3CCCC[C@H]3[NH]2)[O]C1=O` [Oxaliplatin, oxaliplatin] the CI value [2, 3] was 0.829, the Fa value [2, 3] was 0.7498 and the CI value [2, 4] was 0.762. The Fa value [2, 4] was 0.7832, the CI value [2, 5] was 0.793 and the Fa value [2, 5] was 0.7355.

`CO[C@@H]1[C@H](N(C)C(=O)c2ccccc2)C[C@H]2O[C@]1(C)n1c3ccccc3c3c4c(c5c6ccccc6n2c5c31)C(=O)NC4` [Midostaurin, midostaurin] gave a CI value [2, 6] of 0.719, a Fa value [2, 6] of 0.8117 and a CI value [2, 7] of 0.583. The Fa value [2, 7] was 0.8520, the CI value [2, 8] was 0.775 and the Fa value [2, 8] was 0.7639.

In the case of `COc1cc([C@@H]2c3cc4c(cc3[C@@H](O[C@@H]3O[C@@H]5CO[C@@H](C)O[C@H]5[C@H](O)[C@H]3O)[C@H]3COC(=O)[C@H]23)OCO4)cc(OC)c1O` [Etoposide, etoposide], the CI value [2, 9] was 0.707, the Fa value [2, 9] was 0.7245 and the CI value [2, 10] was 0.635. For the same compound, the Fa value [2, 10] was 0.7460, the CI value [2, 11] was 0.763 and the Fa value [2, 11] was 0.6978.

For `CCN(CC)CCNC(=O)c1c(C)[nH]c(/C=C2\C(=O)Nc3ccc(F)cc32)c1C` [Sunitinib, sunitinib], the CI value [2, 12] was 0.693, the Fa value [2, 12] was 0.7017 and the CI value [2, 13] was 0.728. The Fa value [2, 13] was 0.8248, the CI value [2, 14] was 0.688 and the Fa value [2, 14] was 0.6919. For the same compound, the CI value [2, 15] was 0.723, the Fa value [2, 15] was 0.8234 and the CI value [2, 16] was 0.709. The Fa value [2, 16] was 0.6775, the CI value [2, 17] was 0.675 and the Fa value [2, 17] was 0.8225.

For `COc1cc2nccc(Oc3ccc(NC(=O)C4(C(=O)Nc5ccc(F)cc5)CC4)cc3)c2cc1OC` [Cabozantinib, cabozantinib], the CI value [2, 18] was 0.868, the Fa value [2, 18] was 0.7829 and the CI value [2, 19] was 0.486. It also gave a Fa value [2, 19] of 0.8982, a CI value [2, 20] of 0.871 and a Fa value [2, 20] of 0.7659.

`CS(=O)(=O)CCNCc1ccc(-c2ccc3ncnc(Nc4ccc(OCc5cccc(F)c5)c(Cl)c4)c3c2)o1` [Lapatinib, lapatinib] was tested, and the CI value [2, 21] was 0.512, the Fa value [2, 21] was 0.8641 and the CI value [2, 22] was 0.443. It also gave a Fa value [2, 22] of 0.8816, a CI value [2, 23] of 0.417 and a Fa value [2, 23] of 0.8726.

In the case of `O=c1[nH]c(=O)n([C@H]2C[C@H](O)[C@@H](CO)O2)cc1C(F)(F)F` [Trifluridine, trifluridine], the CI value [2, 24] was 0.892, the Fa value [2, 24] was 0.4363 and the CI value [2, 25] was 0.844. For the same compound, the Fa value [2, 25] was 0.6485, the CI value ([2]; Example Compound 14 4420 nM + Trifluridine 645 nM) was 0.678 and the CI value ([2]; Example Compound 14 6640 nM + Trifluridine 969 nM) was 0.791. It also gave a CI value [2, 26] of 0.897, a Fa value [2, 26] of 0.5907 and a CI value ([2]; Example Compound 209A 952 nM + Trifluridine 646 nM) of 0.733. For the same compound, the CI value ([2]; Example Compound 209A 1430 nM + Trifluridine 970 nM) was 0.775, the CI value [2, 27] was 0.869 and the Fa value [2, 27] was 0.5850. For the same compound, the CI value ([2]; Example Compound 235A 1170 nM + Trifluridine 646 nM) was 0.680 and the CI value ([2]; Example Compound 235A 1750 nM + Trifluridine 967 nM) was 0.739.

For `O=c1[nH]cc(F)c(=O)[nH]1` [5-Fluorouracil, 5-fluorouracil], the CI value [2, 28] was 0.880, the Fa value [2, 28] was 0.6619 and the CI value [2, 29] was 0.853. For the same compound, the Fa value [2, 29] was 0.7187, the CI value [2, 30] was 0.880 and the Fa value [2, 30] was 0.6738.

For `Nc1ncn([C@@H]2O[C@H](CO)[C@@H](O)[C@H]2O)c(=O)n1` [Azacytidine, azacitidine], the CI value [2, 31] was 0.744, the Fa value [2, 31] was 0.7570 and the CI value [2, 32] was 0.850. It also gave a Fa value [2, 32] of 0.6005, a CI value [2, 33] of 0.520 and a Fa value [2, 33] of 0.8264. For the same compound, the CI value [2, 34] was 0.822, the Fa value [2, 34] was 0.5392 and the CI value [2, 35] was 0.767. The Fa value [2, 35] was 0.6909.

Compound `CCNC(=O)c1noc(-c2cc(C(C)C)c(O)cc2O)c1-c1ccc(CN2CCOCC2)cc1` [Luminespib, luminespib] has a CI value [2, 36] of 0.786, a Fa value [2, 36] of 0.8373 and a CI value [2, 37] of 0.832. It also gave a Fa value [2, 37] of 0.8172, a CI value [2, 38] of 0.819 and a Fa value [2, 38] of 0.8795.

`Cn1ncnc1[C@H]1c2n[nH]c(=O)c3cc(F)cc(c23)N[C@@H]1c1ccc(F)cc1` [Talazoparib, talazoparib] gave a CI value [2, 39] of 0.540, a Fa value [2, 39] of 0.7406 and a CI value [2, 40] of 0.422. It also gave a Fa value [2, 40] of 0.7998, a CI value [2, 41] of 0.585 and a Fa value [2, 41] of 0.6990.

Work on `O=C(c1cc(Cc2n[nH]c(=O)c3ccccc23)ccc1F)N1CCN(C(=O)C2CC2)CC1` [Olaparib, olaparib] yielded a CI value [2, 42] of 0.668, a Fa value [2, 42] of 0.7031 and a CI value [2, 43] of 0.478. For the same compound, the Fa value [2, 43] was 0.7947, the CI value [2, 44] was 0.683 and the Fa value [2, 44] was 0.6832.
